One data set concerns the target T1, α4β1 integrin (Homo sapiens, UniProt P05556+P13612).
T1 construct: Jurkat™ cells (maintained in log phase growth) were labeled with Calcein AM; endogenous in cells; host or cells: Jurkat cells
Put plainly: α4β1 Integrin Adhesion Assay: Jurkat Cell Adhesion to Human Plasma Fibronectin. The data set is classed as cell-based. As to conditions: Jurkat cells. The procedure:
96 well plates (Costar 3590 EIA plates) were coated with human fibronectin (Gibco/BRL, cat #33016–023) at a concentration of 10 μg/mL overnight at 4° C. The plates were then blocked with a solution of bovine serum albumin (BSA; 0.3%) in saline. Jurkat™ cells (maintained in log phase growth) were labeled with Calcein AM according to the manufacturer's instructions, and suspended at a concentration of 2×10^6 cells/mL in Hepes/Saline/BSA. The cells were then exposed to test and control compounds for 30 minutes at room temperature before transfer to individual wells of the fibronectin coated plate. Adhesion was allowed to occur for 35 minutes at 37° C. The wells were then washed by gentle aspiration and pipetting with fresh saline. Fluorescence associated with the remaining adherent cells was quantified using a fluorescence plate reader at EX 485/EM 530.
Cell cultures were prepared by first splitting the stationary phase Jurkat™ cells at 1:10 on day one, and 1:2 on day two to perform assay on day 3. The cells split 1:10 on day one were split 1:4 on day 3 for a day 4 assay.
The assay plates were prepared by first making a working solution of Gibco/BRL Human Fibronectin (cat #33016-023) in PBS++, at 10 μg/mL. A Costar 3590 EIA plate was then coated with 50 μL/well for 2 hours at room temperature (thought it can also be left overnight at 4° C.). Finally the plate was asperated and blocked with Hepes/Saline Buffer, 100 μL/well, for 1 hour at RT followed by washing 3× with 150 μL of PBS++.
Compound dilutions were accomplished by preparing 1:3 serial dilutions of compounds as follows. For each plate (4 compounds/plate) 600 μL were added to 4 Bio-Rad Titertubes in a Titertube rack. […] Using Falcon Flexiplates, 100 μL of Hepes/Saline buffer or human serum were added to rows B through G. A multi-channel pipetter set to 180 μL was used to with four tips spaced evenly the pipetter. Each set of four tubes was mixed 5 times and 180 μL of 2× compound was transferred to the first column of each compound dilution in Row B, leaving Row A empty. 180 μL were added to the other wells in Row A. Serial dilutions were performed down the plate by transferring 50 μL to the next dilution and mixing 5 times, changing tips each time after mixing.
A 20 μg/mL solution in Hepes/Saline buffer or human serum, of 21/6 antibody was the positive control and was set aside in a reagent trough to add to cell suspension plate.
The cell staining was accomplished by first harvesting the log-phase Jurkat™ cells by centrifugation in 50 mL tubes (1100 rpm for 5 minutes). The cells were resuspended in 50 mL PBS++, spun, and resuspend in 20 mL PBS++. The cells were stained by adding 20 μL of Calcein AM for 30 minutes RT. The volume was brought to 50 mL with Hepes/Saline buffer and the cells were counted, spun, and resuspend to 2×10^6 cells/mL in Hepes/Saline buffer or human serum.
The compounds were incubated using the following procedure. In a new flexiplate, 65 μL of stained cells were added to Rows B through H. Then 65 μL of 2× compounds were added to the appropriate rows following the plate setup and mixed three times. 65 μL of 2×-21/6 antibody were added to Row H and mixed 3×. Finally the plate was incubated at room temperature for 30 minutes.
Fibronectin adhesion was measured using a fluorescent plate reader at EX 485/EM 530 after the following work up procedure. After incubation, the cells were mixed three times and 100 μL were transfered to the Fibronectin coated plates and incubated at 37° C. for about 35 minutes. Each plate was washed, row by row, by gently pipetting 100 μL of RT. PBS++ down the sides of the wells and turning the plate 90 degrees to aspirate. This procedure was repeated for a total of 3 washes. Each well was filled with 100 μL after washing by pipetting down the side of the well.
An IC50 value was calculated for each compound, both in the presence of the human serum and in the absence of human serum.

A short description of data set [1]: Cassette Dosing and Serum Analysis for Determination of Bioavailability. The data set is classed as in vivo, rat. As to conditions: average AUC 0→12 h, male Sprague Dawley rats, single oral cassette dose (6 compounds, total dose 10 mg/kg), plasma. The procedure: The cassette included 5 test articles and a standard compound, for a total dose of 10 mg/kg. Each compound/test article was converted to the sodium salt with equimolar 1 N NaOH and dissolved in water at 2 mg/mL. The cassette was prepared by mixing equal volumes of each of the six solutions. The cassette dosing solution was mixed well and then the pH was adjusted to 7.5–9. The dosing solution was prepared the day before the study and stirred overnight at room temperature.
Male Sprague Dawley (SD) rats from Charles River Laboratories, 6–8 weeks old were used in this screen. Rats were quarantined for at least one day and had continuous access to food and water. On the night before the administration of the cassette, the rats were fasted for approximately 16 h.
Four SD rats were assigned in each cassette. A single dose of the dosing solution was administered orally to each rat. The dosing volume (5 mL/kg) and time were recorded and rats were fed 2 h after dosing.
Blood samples were collected via cardiac puncture at the following time points: 4 h, 8 h and 12 h. Immediately prior to blood collection, rats were anesthetized with CO2 gas within 10–20 seconds. After the 12-h samples were collected, the rats were euthanized via CO2 asphyxiation followed by cervical dislocation.
Blood samples were kept in heparinized microtainer tubes under sub-ambient temperature (4° C.) before they were processed. Blood samples were centrifuged (10000 rpm for 5 minutes) and plasma samples were removed and stored in a −20° C. freezer until analyzed for drug levels. Drug levels in the plasma were analyzed using the following protocol for direct plasma precipitation.
The in vivo plasma samples were prepared in a 1.5 mL 96-well plate, by adding, in order, 100 μL of the test plasma, 150 μL of methanol, followed by vortexing for 10–20 seconds. 150 μL of 0.05 ng/μL of an Internal Standard in acetonitrile were added and vortexed for 30 seconds.
The standard curve samples were prepared in a 1.5 mL 96-well plate, by adding, in order, 100 μL of control mouse plasma, followed by 150 μL of methanol and vortexing for 10–20 seconds. 150 μL of 0.05 ng/μL of an Internal Standard in acetonitrile were added and vortexed for 30 seconds. The samples were spiked with 0–200 ng (10 concentrations) of the compound of interest in 50% methanol to obtain a standard curve range of 0.5 ng/mL–2,000 ng/mL. Again, the sample was vortexed for 30 seconds.
The samples were then spun for 20–30 minutes at 3000 rpm in an Eppendorf microfuge before 80–90% of supernatant was transferred into a clean 96-well plate. The organic solvent was then evaporated until the samples were dry (under N2 at 40° C./30–60 min (Zymark Turbovap)).
The residue was then dissolved in […] mobile phase (50% CH3OH/0.1% TFA). LC/MS/MS was then run using a PE-Sciex API-3000 triple quadurpole mass spectrometer (SN0749707), Perkin-Elmer, Series200auto-sampler, and shimadzu 10A pump. Acquisition was done with PE-Sciex Analyst (v1.1) and data analysis and quantification were accomplished using PE-Sciex Analyst (v1.1). A 5–50 μL sample volume was injected onto a reverse phase ThermoHypersil DASH-18 column (Keystone 2.0×20 mm, 5 μm, PN: 8823025-701) using a mobile phase of 25% CH3OH, 0.1% TFA-100% CH3OH, 0.1% TFA. The run time was about 8 minutes at a flow rate of about 300 μL/minutes.
The Area Under the Curve (AUC) was calculated using the linear trapezoidal rule from t=0 to the last sampling time tx (see Handbook of Basic Pharmacokinetics, Wolfgang A. Ritschel and Gregory L. Kearns, 5th ed, 1999). AUC^0→tx=S((Cn+Cn+1)/2))·(tn+1−tn)[(μg/mL)h]

What is called IC50 is the midpoint of a concentration-inhibition curve. A lower IC50 goes with inhibition by little substance.

The structures appear in SMILES notation.

T1 sequence (P13612 34-1032): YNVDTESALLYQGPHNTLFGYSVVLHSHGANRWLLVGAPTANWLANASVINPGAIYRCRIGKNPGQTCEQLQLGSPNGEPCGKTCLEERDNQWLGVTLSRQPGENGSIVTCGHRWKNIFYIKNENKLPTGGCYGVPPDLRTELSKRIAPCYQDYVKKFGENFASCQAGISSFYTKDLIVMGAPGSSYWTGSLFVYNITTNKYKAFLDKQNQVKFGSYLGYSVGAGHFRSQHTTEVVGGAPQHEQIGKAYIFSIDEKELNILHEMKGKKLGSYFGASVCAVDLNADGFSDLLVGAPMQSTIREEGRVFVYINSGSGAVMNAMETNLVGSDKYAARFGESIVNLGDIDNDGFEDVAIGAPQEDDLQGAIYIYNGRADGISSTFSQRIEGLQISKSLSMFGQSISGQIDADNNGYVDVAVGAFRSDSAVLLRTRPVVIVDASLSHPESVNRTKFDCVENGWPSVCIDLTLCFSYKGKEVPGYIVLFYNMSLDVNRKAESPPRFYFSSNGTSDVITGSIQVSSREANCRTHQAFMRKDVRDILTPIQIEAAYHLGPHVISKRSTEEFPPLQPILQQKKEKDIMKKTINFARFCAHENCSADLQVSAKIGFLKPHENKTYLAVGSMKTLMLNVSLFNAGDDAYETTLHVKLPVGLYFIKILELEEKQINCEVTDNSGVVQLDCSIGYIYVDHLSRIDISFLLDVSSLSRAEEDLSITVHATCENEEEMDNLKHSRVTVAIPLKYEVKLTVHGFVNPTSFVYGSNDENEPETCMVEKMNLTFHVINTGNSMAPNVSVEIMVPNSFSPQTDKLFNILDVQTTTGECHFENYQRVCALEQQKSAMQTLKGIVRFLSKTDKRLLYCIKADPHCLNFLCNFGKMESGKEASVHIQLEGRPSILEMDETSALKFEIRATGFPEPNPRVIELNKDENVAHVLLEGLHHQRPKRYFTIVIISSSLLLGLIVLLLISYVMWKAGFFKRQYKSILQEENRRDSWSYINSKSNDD
T1 sequence (P05556 21-798): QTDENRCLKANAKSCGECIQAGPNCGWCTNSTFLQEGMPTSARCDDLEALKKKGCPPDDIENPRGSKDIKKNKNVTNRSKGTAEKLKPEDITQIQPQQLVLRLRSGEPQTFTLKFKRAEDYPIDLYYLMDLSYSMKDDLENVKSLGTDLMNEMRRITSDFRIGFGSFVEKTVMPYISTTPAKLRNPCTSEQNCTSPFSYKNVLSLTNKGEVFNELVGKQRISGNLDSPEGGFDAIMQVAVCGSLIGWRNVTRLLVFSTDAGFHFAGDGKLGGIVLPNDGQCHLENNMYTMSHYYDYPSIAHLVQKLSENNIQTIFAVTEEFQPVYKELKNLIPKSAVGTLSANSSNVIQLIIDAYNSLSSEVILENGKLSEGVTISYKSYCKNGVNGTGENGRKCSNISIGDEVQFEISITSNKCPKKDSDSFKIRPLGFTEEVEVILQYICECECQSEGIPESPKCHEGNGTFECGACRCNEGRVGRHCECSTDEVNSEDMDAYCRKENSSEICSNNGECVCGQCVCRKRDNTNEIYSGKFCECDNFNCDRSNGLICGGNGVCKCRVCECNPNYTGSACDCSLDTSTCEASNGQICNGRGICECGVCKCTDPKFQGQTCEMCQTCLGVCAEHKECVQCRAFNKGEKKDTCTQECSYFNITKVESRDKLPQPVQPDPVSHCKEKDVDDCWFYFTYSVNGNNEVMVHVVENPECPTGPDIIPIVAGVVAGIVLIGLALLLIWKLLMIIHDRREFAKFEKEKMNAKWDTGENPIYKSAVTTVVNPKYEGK

On to `CCN(CC)c1ncc(N(C)S(=O)(=O)c2ccc(F)cc2)c(N[C@@H](Cc2ccc(OC(=O)N3CCC3)cc2)C(=O)O)n1` [Example 8, N-(2-[N′,N′-diethylamino]-5-[N″-(4-fluorophenylsulfonyl)-N″-methylamino]pyrimidin-4-yl)-4′-(azetidin-1-ylcarbonyloxy)-L-phenylalanine], for which the IC50 on α4β1 integrin (containing human serum) was 225 nM; against α4β1 integrin (without the human serum), 1.66 nM. Also, in data set [1], the AUC is given as 2.4082 (μg/mL)h.
Consider `C#CCN(c1cnc(N(CC)CC)nc1N[C@@H](Cc1ccc(OC(=O)N2CCCC2)cc1)C(=O)O)S(=O)(=O)c1ccc(Cl)cc1` [Example 19, N-(2-[N′,N′-diethylamino]-5-[N″-(4-chlorophenylsulfonyl)-N″-propargylamino]pyrimidin-4-yl)-4′-(pyrrolidin-1-ylcarbonyloxy)-L-phenylalanine], for which the 50% inhibitory concentration (IC50) against α4β1 integrin (containing human serum) was 6280 nM; against α4β1 integrin (without the human serum), 6.93 nM.
Take `CCN(CC)c1ncc(N(CC)S(=O)(=O)c2ccc(F)cc2)c(N[C@@H](Cc2ccc(OC(=O)N3CCCC3)cc2)C(=O)O)n1` [Example 2, N-(2-[N′,N′-diethylamino]-5-[N″-(4-fluorophenylsulfonyl)-N″-ethylamino]pyrimidin-4-yl)-4′-(pyrrolidin-1-ylcarbonyloxy)-L-phenylalanine]: the IC50 against α4β1 integrin (containing human serum) was 604 nM; at α4β1 integrin (without the human serum), 1.59 nM. Besides, the AUC in data set [1] is 15.971 (μg/mL)h.
On to `CCN(CC)c1ncc(N(C)S(=O)(=O)c2ccc(F)cc2F)c(N[C@@H](Cc2ccc(OC(=O)N3CCCC3)cc2)C(=O)O)n1` [Example 11, N-(2-[N′,N′-diethylamino]-5-[N″-(2,4-difluorophenylsulfonyl)-N″-methylamino]pyrimidin-4-yl)-4′-(pyrrolidin-1-ylcarbonyloxy)-L-phenylalanine], for which the 50% inhibitory concentration (IC50) against α4β1 integrin (containing human serum) was 483 nM; on α4β1 integrin (without the human serum) it was 8.37 nM. In data set [1], the AUC is listed as 14.818 (μg/mL)h.
Regarding `CCN(CC)c1ncc(N(C)S(=O)(=O)c2ccc(Cl)cc2)c(N[C@@H](Cc2ccc(OC(=O)N3CCC3)cc2)C(=O)O)n1` [Example 9], the IC50 on α4β1 integrin (containing human serum) was 207 nM; against α4β1 integrin (without the human serum), 3.24 nM. The AUC in data set [1] is 2.0774 (μg/mL)h.
The matching figures for `C#CCN(c1cnc(N(CC)CC)nc1N[C@@H](Cc1ccc(OC(=O)N2CCC2)cc1)C(=O)O)S(=O)(=O)c1ccc(F)cc1` [Example 18, N-(2-[N′,N′-diethylamino]-5-[N″-(4-fluorophenylsulfonyl)-N″-propargylamino]pyrimidin-4-yl)-4′-(azetidin-1-ylcarbonyloxy)-L-phenylalanine]: 480 nM, 5.86 nM and 4.7528 (μg/mL)h.
For `CCN(CC)c1ncc(N(CC)S(=O)(=O)c2ccc(F)cc2F)c(N[C@@H](Cc2ccc(OC(=O)N3CCCC3)cc2)C(=O)O)n1` [Example 12, N-(2-[N′,N′-diethylamino]-5-[N″-(2,4-difluorophenylsulfonyl)-N″-ethylamino]pyrimidin-4-yl)-4′-(pyrrolidin-1-ylcarbonyloxy)-L-phenylalanine], in that order: 227 nM, 8.71 nM and 4.7816 (μg/mL)h.
Turning to `CCN(CC)c1ncc(N(C)S(=O)(=O)c2ccc(F)cc2)c(N[C@@H](Cc2ccc(OC(=O)N3CCCCC3)cc2)C(=O)O)n1` [Example 5, N-(2-[N′,N′-diethylamino]-5-[N″-(4-fluorophenylsulfonyl)-N″-methylamino]pyrimidin-4-yl)-4′-(piperidin-1-ylcarbonyloxy)-L-phenylalanine], the values for the IC50 on α4β1 integrin (containing human serum) and against α4β1 integrin (without the human serum) were 1570 nM and 6 nM, respectively. Moreover, the AUC in data set [1] was 2.1654 (μg/mL)h.
In the case of `CCN(CC)c1ncc(N(C)S(=O)(=O)c2ccc(Cl)cc2)c(N[C@@H](Cc2ccc(OC(=O)N3CCCC3)cc2)C(=O)O)n1` [Example 4, N-(2-[N′,N′-diethylamino]-5-[N″-(4-chlorophenylsulfonyl)-N″-methylamino]pyrimidin-4-yl)-4′-(pyrrolidin-1-ylcarbonyloxy)-L-phenylalanine], the IC50 against α4β1 integrin (containing human serum) was 2280 nM; against α4β1 integrin (without the human serum), 19 nM. In data set [1], the AUC is reported as 13.829 (μg/mL)h.
Turning to `CCN(CC)c1ncc(N(CC)S(=O)(=O)c2ccc(Cl)cc2)c(N[C@@H](Cc2ccc(OC(=O)N3CCCC3)cc2)C(=O)O)n1` [Example 1, N-(2-[N′,N′-diethylamino]-5-[N″-(4-chlorophenylsulfonyl)-N″-ethylamino]pyrimidin-4-yl)-4′-(pyrrolidin-1-ylcarbonyloxy)-L-phenylalanine], the IC50 on α4β1 integrin (containing human serum) was 409 nM; at α4β1 integrin (without the human serum), 17 nM. Further, the AUC in data set [1] is reported as 14.798 (μg/mL)h.
For `C#CCN(c1cnc(N(CC)CC)nc1N[C@@H](Cc1ccc(OC(=O)N2CCCC2)cc1)C(=O)O)S(=O)(=O)c1ccc(F)cc1` [Example 15, N-(2-[N′,N′-diethylamino]-5-[N″-(4-fluorophenylsulfonyl)-N″-propargylamino]pyrimidin-4-yl)-4′-(pyrrolidin-1-ylcarbonyloxy)-L-phenylalanine], the AUC in data set [1] is on record as 90.317 (μg/mL)h.

For the origin of these results see patent US7026328B2, “Heterocyclic compounds which inhibit leukocyte adhesion mediated by α4 integrins” (Elan Pharmaceuticals, Inc., priority 2002, dated 2006).
